Values after ≈ are worked out from the molar mass of the structure shown.
Tests used:
[1] = Aqueous solubility at pH 6.8 and 25 degC; type: physicochemical; settings: aqueous medium
Rattus norvegicus [2] = assay: Concentration in rat brain at 10 mg/kg, po after 2 hrs; type: ADME, organism-based, Wistar Han; design: dose 10 mg/kg, route oral; settings: in vivo
[3] = Terminal half life in rat at 3 mg/kg, po; type: ADME, organism-based; design: dose 3 mg/kg, route oral; settings: Wistar Han, in vivo, read-out: beta t1/2 (converted)
[4] = Plasma concentration in rat at 3 mg/kg, po after 18 hrs; type: ADME, organism-based; design: dose 3 mg/kg, route oral; settings: Wistar Han
[5] = biological target: Transient receptor potential cation channel subfamily V member 1 (Rattus norvegicus) (UniProt O35433); assay: Effect on inflammatory mechanical hyperalgesia in rat at 1 hr; type: functional
Transient receptor potential cation channel subfamily V member 1 (Rattus norvegicus), sequence (O35433 whole entry): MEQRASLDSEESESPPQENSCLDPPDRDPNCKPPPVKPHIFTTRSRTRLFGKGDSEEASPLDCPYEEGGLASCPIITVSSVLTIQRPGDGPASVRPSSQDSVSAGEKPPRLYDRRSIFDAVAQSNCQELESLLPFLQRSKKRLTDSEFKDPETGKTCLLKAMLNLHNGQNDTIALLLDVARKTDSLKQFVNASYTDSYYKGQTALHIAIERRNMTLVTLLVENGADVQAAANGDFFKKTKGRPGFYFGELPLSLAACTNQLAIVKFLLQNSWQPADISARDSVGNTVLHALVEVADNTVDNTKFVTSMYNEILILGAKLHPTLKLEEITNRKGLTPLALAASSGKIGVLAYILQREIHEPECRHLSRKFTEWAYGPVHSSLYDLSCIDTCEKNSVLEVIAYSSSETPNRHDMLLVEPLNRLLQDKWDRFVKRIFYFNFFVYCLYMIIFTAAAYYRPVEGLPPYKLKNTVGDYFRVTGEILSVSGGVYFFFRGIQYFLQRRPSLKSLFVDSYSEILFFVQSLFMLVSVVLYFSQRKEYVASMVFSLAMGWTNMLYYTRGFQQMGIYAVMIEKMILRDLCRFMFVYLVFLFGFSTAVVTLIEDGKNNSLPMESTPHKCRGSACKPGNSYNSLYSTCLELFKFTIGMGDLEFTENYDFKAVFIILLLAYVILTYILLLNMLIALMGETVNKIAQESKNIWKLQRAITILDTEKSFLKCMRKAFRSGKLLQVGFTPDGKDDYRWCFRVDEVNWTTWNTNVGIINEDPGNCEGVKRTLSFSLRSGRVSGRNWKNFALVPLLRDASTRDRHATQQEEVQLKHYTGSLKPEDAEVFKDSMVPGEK

[6] = Plasma concentration in rat at 1 mg/kg, iv after 0.5 hrs; type: ADME, organism-based; design: dose 1 mg/kg, route intravenous; settings: Wistar Han
Rattus norvegicus [7] = assay: Concentration in rat brain at 1 mg/kg, iv after 1 hrs; type: ADME, organism-based, Wistar Han; design: dose 1 mg/kg, route intravenous; settings: in vivo
Rattus norvegicus [8] = assay: Concentration in rat brain at 10 mg/kg, po after 9 hrs; type: ADME, organism-based, Wistar Han; design: dose 10 mg/kg, route oral; settings: in vivo
[9] = Plasma concentration in rat at 1 mg/kg, iv after 0.033 hrs; type: ADME, organism-based; design: dose 1 mg/kg, route intravenous; settings: Wistar Han
[10] = Clearance in rat at 1 mg/kg, iv; type: ADME, organism-based; design: dose 1 mg/kg, route intravenous; settings: Wistar Han, in vivo
[11] = Plasma concentration in rat at 3 mg/kg, po after 24 hrs; type: ADME, organism-based; design: dose 3 mg/kg, route oral; settings: Wistar Han
[12] = Tmax in rat brain at 1 mg/kg, iv; type: ADME, organism-based; design: dose 1 mg/kg, route intravenous; settings: Wistar Han
[13] = Volume of distribution in rat at 1 mg/kg, iv; type: ADME, organism-based; design: dose 1 mg/kg, route intravenous; settings: Wistar Han, in vivo, read-out: Vdss
Rattus norvegicus [14] = assay: Concentration in rat brain at 1 mg/kg, iv after 2 hrs; type: ADME, organism-based, Wistar Han; design: dose 1 mg/kg, route intravenous; settings: in vivo
[15] = biological target: Transient receptor potential cation channel subfamily V member 1 (Rattus norvegicus) (UniProt O35433); assay: Effect on neuropathic mechanical hyperalgesia in rat at 1 hr; type: functional
[16] = Tmax in rat brain at 3 mg/kg, po; type: ADME, organism-based; design: dose 3 mg/kg, route oral; settings: Wistar Han
Rattus norvegicus [17] = assay: Concentration in rat brain at 10 mg/kg, po after 0.16 hrs; type: ADME, organism-based, Wistar Han; design: dose 10 mg/kg, route oral; settings: in vivo
[18] = biological target: Transient receptor potential cation channel subfamily V member 1 (Rattus norvegicus, UniProt O35433); assay: Inhibition of low pH activation of rat TRPV1; type: functional
Transient receptor potential cation channel subfamily V member 1, sequence (O35433 whole entry): as above

Rattus norvegicus [19] = assay: Concentration in rat brain at 3 mg/kg, po after 1 hrs; type: ADME, organism-based, Wistar Han; design: dose 3 mg/kg, route oral; settings: in vivo
Rattus norvegicus [20] = assay: Concentration in rat brain at 3 mg/kg, po after 4 hrs; type: ADME, organism-based, Wistar Han; design: dose 3 mg/kg, route oral; settings: in vivo
[21] = biological target: Transient receptor potential cation channel subfamily V member 1 (Rattus norvegicus) (UniProt O35433); assay: Effect on capsaicin induced mechanical hyperalgesia in rat; type: functional
Rattus norvegicus [22] = assay: Concentration in rat brain at 3 mg/kg, po after 18 hrs; type: ADME, organism-based, Wistar Han; design: dose 3 mg/kg, route oral; settings: in vivo
[23] = Plasma concentration in rat at 1 mg/kg, iv after 1.5 hrs; type: ADME, organism-based; design: dose 1 mg/kg, route intravenous; settings: Wistar Han
Rattus norvegicus [24] = assay: Concentration in rat brain at 1 mg/kg, iv after 0.16 hrs; type: ADME, organism-based, Wistar Han; design: dose 1 mg/kg, route intravenous; settings: in vivo
Rattus norvegicus [25] = assay: Concentration in rat brain at 1 mg/kg, iv after 0.033 hrs; type: ADME, organism-based, Wistar Han; design: dose 1 mg/kg, route intravenous; settings: in vivo
[26] = Cmax in rat plasma at 3 mg/kg, po; type: ADME, organism-based; design: dose 3 mg/kg, route oral; settings: Wistar Han
Rattus norvegicus [27] = assay: Concentration in rat brain at 1 mg/kg, iv after 0.5 hrs; type: ADME, organism-based, Wistar Han; design: dose 1 mg/kg, route intravenous; settings: in vivo
[28] = Plasma concentration in rat at 10 mg/kg, po after 1 hrs; type: ADME, organism-based; design: dose 10 mg/kg, route oral; settings: Wistar Han
[29] = Plasma concentration in rat at 3 mg/kg, po after 0.16 hrs; type: ADME, organism-based; design: dose 3 mg/kg, route oral; settings: Wistar Han
[30] = Plasma concentration in rat at 3 mg/kg, po after 1.5 hrs; type: ADME, organism-based; design: dose 3 mg/kg, route oral; settings: Wistar Han
Rattus norvegicus [31] = assay: Concentration in rat brain at 3 mg/kg, po after 2 hrs; type: ADME, organism-based, Wistar Han; design: dose 3 mg/kg, route oral; settings: in vivo
[32] = Plasma concentration in rat at 10 mg/kg, po after 0.5 hrs; type: ADME, organism-based; design: dose 10 mg/kg, route oral; settings: Wistar Han
Rattus norvegicus [33] = assay: Concentration in rat brain at 10 mg/kg, po after 0.5 hrs; type: ADME, organism-based, Wistar Han; design: dose 10 mg/kg, route oral; settings: in vivo
Rattus norvegicus [34] = assay: Concentration in rat brain at 1 mg/kg, iv after 0.083 hrs; type: ADME, organism-based, Wistar Han; design: dose 1 mg/kg, route intravenous; settings: in vivo
[35] = Plasma concentration in rat at 1 mg/kg, iv after 0.16 hrs; type: ADME, organism-based; design: dose 1 mg/kg, route intravenous; settings: Wistar Han
[36] = Terminal half life in rat at 1 mg/kg, iv; type: ADME, organism-based; design: dose 1 mg/kg, route intravenous; settings: Wistar Han, in vivo, read-out: beta t1/2 (converted)
[37] = Plasma concentration in rat at 3 mg/kg, po after 1 hrs; type: ADME, organism-based; design: dose 3 mg/kg, route oral; settings: Wistar Han
[38] = Plasma concentration in rat at 3 mg/kg, po after 9 hrs; type: ADME, organism-based; design: dose 3 mg/kg, route oral; settings: Wistar Han

solubility [1]: 0.8 µg/mL (≈ 2.09 µM) | Ct (Rattus norvegicus [2]): 1424 pmol/g | half-life [3]: 3.5 h | concentration at 18 h [4]: 90 nM | ED50 [5]: 4.7 mg/kg | concentration at 0.5 h [6]: 1180 nM | Ct (Rattus norvegicus [7]): 709 pmol/g | Ct (Rattus norvegicus [8]): 811 pmol/g | concentration at 0.033 h [9]: 3540 nM | clearance [10]: 5.25 mL/min/kg | concentration at 24 h [11]: 53 nM | Tmax [12]: 0.5 h | Vd [13]: 1.55 L/kg | Ct (Rattus norvegicus [14]): 449 pmol/g | ED50 [15]: 2.6 mg/kg | Tmax [16]: 4 h | Ct (Rattus norvegicus [17]): 16.4 pmol/g | IC50 [18]: 105 nM | Ct (Rattus norvegicus [19]): 641 pmol/g | Ct (Rattus norvegicus [20]): 1666 pmol/g | Activity [21]: Dose-dependent effect | Ct (Rattus norvegicus [22]): < 125 pmol/g | concentration at 1.5 h [23]: 1120 nM | Ct (Rattus norvegicus [24]): 944 pmol/g | Ct (Rattus norvegicus [25]): 764 pmol/g | Cmax [26]: 1910 nM | Ct (Rattus norvegicus [27]): 1079 pmol/g | concentration at 1 h [28]: 2680 nM | concentration at 0.16 h [29]: 60 nM | concentration at 1.5 h [30]: 1790 nM | Ct (Rattus norvegicus [31]): 1364 pmol/g | concentration at 0.5 h [32]: 1460 nM | Ct (Rattus norvegicus [33]): 181 pmol/g | Ct (Rattus norvegicus [34]): 960 pmol/g | concentration at 0.16 h [35]: 2200 nM | half-life [36]: 3.48 h | concentration at 1 h [37]: 1530 nM | concentration at 9 h [38]: 904 nM
SMILES: Cc1nc2cc(C(C)C)c(-c3ccc(Cl)c(OCC4CC4)c3)cc2c(=O)[nH]1

Reference: ChEMBL document CHEMBL1147725, “Identification and biological characterization of 6-aryl-7-isopropylquinazolinones as novel TRPV1 antagonists that are effective in models of chronic pain” (J Med Chem, 2006)
